According to paper PMC5773577, “Novel Miniature Membrane Active Lipopeptidomimetics against Planktonic and Biofilm Embedded Methicillin-Resistant Staphylococcus aureus” (Scientific Reports, 2018):
In brackets after ≈: the same amount, converted by molar mass.

What was measured:
[1] = test system: stationary phase MRSA ATCC 33591; test: Bacterial killing kinetics, stationary phase cells in nutrient-depleted MHB medium; assay type: cell-based, Staphylococcus aureus; settings: 24 h
Experimental: The kinetics of bacterial killing was determined against MRSA ATCC 33591 strain using drop plate method as described previously with slight modifications[51],[67],[70],[71]. The experiment was performed against exponential phase MRSA in normal medium and stationary phase MRSA in nutrient-depleted medium. For the preparation of nutrient-depleted medium, the primary MRSA ATCC 33591 culture in MHB medium was allowed to grow for 18 h at 37 °C and the cells were removed by centrifugation. The cell pellet was used for stationary phase culture and the spent medium supernatant was used as a nutrient-depleted medium. For obtaining exponential phase cells, MRSA was grown overnight in MHB and 100 μL suspension was used to inoculate 10 mL fresh MHB medium. The cells were incubated at 37 °C for 4–6 h to reach exponential phase.
For the experiments, both exponential and stationary phase cells were re-suspended separately in normal or nutrient-depleted mediums to OD600 = 0.5 (~10^8 CFU/mL). A 25 µL aliquot of this suspension was added to 475 μL of respective medium with or without test peptidomimetics/antibiotics in an eppendorf tube. […] The agar plates were incubated at 37 °C for 16–18 h and the colonies were counted (dilutions having colonies in the range of 10–100 were counted). […]

[2] = test system: E. faecium (E-447), clinical isolate of vancomycin-resistant E. faecium; test: organism not typed; assay type: cell-based, Enterococcus faecium; settings: read-out: Minimum inhibitory concentration, MIC
Method in brief: (§1)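 Minimum inhibitory concentrations are determined by a modified broth microdilution in MHB, starting from 2–5 × 10^5 CFU/mL mid-log inoculum. Incubation runs 16–18 h at 37 °C with agitation, and growth is scored by 600 nm absorbance.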

[3] = test system: E. faecium (E-7846), clinical isolate of vancomycin-resistant E. faecium; test: organism not typed; assay type: cell-based, Enterococcus faecium; settings: read-out: Minimum inhibitory concentration, MIC
Method in brief: as §1

MRSA ATCC 33591 = test: Cell viability corresponding to calcein leakage experiment; assay type: cell-based, Staphylococcus aureus; settings: calcein-loaded cells in PBS, 4 × MIC (melittin 10 μM), 2 h incubation
Experimental: To assess the effect of designed peptidomimetics on membrane integrity of MRSA ATCC 33591 strain a calcein-AM dye release experiment was performed using the protocol described previously with slight modifications[51]. Briefly, exponential phase MRSA ATCC 33591 culture was prepared in MHB medium as mentioned earlier and adjusted to OD600 = 1 (~10^9 CFU/mL) in PBS (10 mM sodium phosphate, 150 mM NaCl, pH 7.4). Thereafter, the cells were incubated at 37 °C with calcein-AM (2 μg/mL) in 10% MHB medium for 2 h. The calcein-loaded cells were washed once and re-suspended in PBS to OD600 = 0.5 (~10^8 CFU/mL). The cells were diluted 100× in PBS to get 3–5 × 10^5 CFU/mL and were incubated with different concentrations of test agents at 37 °C in dark for 2 h. Subsequently, calcein fluorescence was measured via flow cytometry (Becton Dickinson (BD) FACS verse, San Jose, CA) with excitation and emission wavelengths of 488 nm and 530 ± 30 nm, respectively. For each sample, 10,000 cells were acquired. As a positive control, melittin (10 μM) was assayed under identical conditions. The experiment was repeated on two different days and mean ± S.D. is presented here. […]
agar plates. The plates were incubated at 37 °C for 16-18 h and colonies were counted. […]

[4] = test system: Methicillin-resistant S. epidermidis (ATCC 35984); test: microbe, parasite or virus in culture; assay type: cell-based, Staphylococcus epidermidis; settings: Staphylococcus epidermidis, ATCC 35984 / MRSE; MRSE ATCC 35984; MHB, 2–5 × 10^5 CFU/mL, 16–18 h, 37 °C, OD600; read-out: Minimum inhibitory concentration, MIC
Method in brief: as §1

MRSA ATCC 33591 biofilm = test: Biofilm formation inhibition, crystal violet (CV) assay; assay type: cell-based, Staphylococcus aureus; settings: 24 h biofilm formation inhibition, 2.5 μg/mL
Experimental: For the experiment, a protocol as described previously was used with slight modifications. Briefly, desired concentrations of the test agents in PBS were added to the wells of a 96-well plate (100 μL). Thereafter, overnight grown stationary phase MRSA ATCC 33591 culture (~4 × 10^5 CFU/mL) in TSB medium (supplemented with 0.25% glucose and 0.5% NaCl) was added to the 96-well plates (100 μL). The plates were incubated at 37 °C without shaking for 24 h. After 24 h, the used medium was discarded and the biofilms formed were washed with PBS once. Subsequently, CV and AB assays were performed to quantify biomass and viability respectively, as described below:
For CV assay after washing the biofilms, the plates were heat fixed at 60 °C for 1 h and 0.1% aqueous CV solution (200 μL) was added to the wells. After 15 min incubation, excess CV was washed off and biomass adhered CV was dissolved in 33% glacial acetic acid (200 μL). The plates were kept at room temperature for 15 min. […] To quantify CV associated biomass, the absorbance was read at 570 nm.
The experiments were repeated on two different days and on each day 6 wells were used for a single treatment. […] Corresponding to CV and AB assay the viability of cells upon treatment was also evaluated. […] The agar plates were incubated at 37 °C for 16–24 h and CFUs were counted. […]

Question: Which “log reduction in CFU/mL” value ([1]; 4 × MIC) does the source give for `CN[C@H](CC(C)C)C(=O)N[C@H]1C(=O)N[C@@H](CC(N)=O)C(=O)N[C@H]2C(=O)N[C@H]3C(=O)N[C@H](C(=O)N[C@H](C(=O)O)c4cc(O)cc(O)c4-c4cc3ccc4O)[C@H](O)c3ccc(c(Cl)c3)Oc3cc2cc(c3O[C@@H]2O[C@H](CO)[C@@H](O)[C@H](O)[C@H]2O[C@H]2C[C@](C)(N)[C@H](O)[C@H](C)O2)Oc2ccc(cc2Cl)[C@H]1O` [VAN, vancomycin] here?
Answer: ~ 1.1 log

Question: What about the “log reduction in CFU/mL” value ([1]; 10 × MIC) of the same compound?
Answer: ~ 1.1 log

Question: And the MIC [2]?
Answer: > 45.4 µg/mL

Question: And the MIC [3]?
Answer: > 45.4 µg/mL

Question: What about the “log reduction in viability” value (MRSA ATCC 33591) of the same compound?
Answer: no reduction

Question: And the MIC [4]?
Answer: 2.8 µg/mL (≈ 1.93 µM)

Question: What about the “reduction of biomass (CV assay)” value (MRSA ATCC 33591 biofilm) of the same compound?
Answer: > 95%
